# Source: patent US20120079993A1, “B[…]” (UNIVERSITY OF DURHAM, priority 2010, published 2012)
# Experiments:
# mouse or rat = experiment: Elevated platform at 75 cm height: falling from the platform and locomotion; format: in vivo; settings: 0.2 mg/kg i.p.; platform at 75 cm height
# Excerpt: Most mice and rats do jump onto the ground when the platform is raised by 50 cm but not when it is raised by about 75 cm. […] If a manipulation does induce jumping onto or falling on the ground, the experiment cannot be continued with the group of animals displaying this behaviour. Lower the doses if using drugs. One can prevent animals from sliding from the platform by using a ledge (not higher than 0.5 cm height) on each side adjacent to the void space. […] At 100 cm height, the test is more anxiogenic (3) and it is likely to cancel its sensitivity to experimental manipulations. Because of animal welfare regulations, it is advised that a soft carpet (polyethylene foam map about 3-5 cm thick) is laid on the ground beneath the slopes. It is preferable that it is grey or dark unicolor and covers all the visible areas of the floor within the curtain perimeter that surrounds the test apparatus.
# Balb/c mice = experiment: Open space anxiety test: elevated platform with steep slopes; settings: amphetamine 5 and 10 mg/kg vs diazepam 0.5, 1 and 3 mg/kg
SMILES,effect on locomotion (mouse or rat),falling from the platform (mouse or rat),number of crossings on the platform (motor activity) in amphetamine treated mice compared to diazepam treated mice (Balb/c mice),number of crossings on the platform (motor activity) in amphetamine treated mice compared to diazepam treated mice (Balb/c mice; listed as Amphetamine)
C[C@]12N[C@H](Cc3ccccc31)c1ccccc12 [MK-801],"induced uncoordinated, unsteady locomotion",falling from the platform,–,–
CC(N)Cc1ccccc1 (stereo not shown) [amphetamine],–,–,double,at least two-fold
